In ChEMBL document CHEMBL1140785, “Synthesis, biological evaluation and molecular modelling studies of novel ACD- and ABD-ring steroidomimetics as inhibitors of CYP17” (Bioorg Med Chem Lett, 2008):

How the values were obtained:
[1] = biological target: T1, Steroid 17-alpha-hydroxylase/17,20 lyase (Homo sapiens, UniProt P05093); assay: Inhibition of human CYP17 expressed in Escherichia coli at 0.2 uM
T1 sequence (P05093 whole entry): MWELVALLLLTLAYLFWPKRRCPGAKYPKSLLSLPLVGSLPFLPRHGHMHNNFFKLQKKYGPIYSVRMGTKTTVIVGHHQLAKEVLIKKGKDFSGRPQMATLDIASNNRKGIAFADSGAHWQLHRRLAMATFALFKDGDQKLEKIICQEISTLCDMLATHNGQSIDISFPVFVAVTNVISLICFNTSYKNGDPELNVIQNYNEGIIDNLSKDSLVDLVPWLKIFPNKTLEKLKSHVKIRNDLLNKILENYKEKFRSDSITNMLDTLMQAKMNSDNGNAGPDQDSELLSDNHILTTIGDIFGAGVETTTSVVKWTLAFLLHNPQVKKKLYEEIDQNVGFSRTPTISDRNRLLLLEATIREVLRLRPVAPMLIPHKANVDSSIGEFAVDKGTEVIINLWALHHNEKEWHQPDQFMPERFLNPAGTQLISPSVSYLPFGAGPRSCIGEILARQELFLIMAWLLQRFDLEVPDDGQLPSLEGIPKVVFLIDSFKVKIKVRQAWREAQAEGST

[2] = biological target: T1, Steroid 17-alpha-hydroxylase/17,20 lyase; assay: Inhibition of human CYP17 expressed in Escherichia coli at 2 uM
CYP1A2 [3] = biological target: T2, CYP1A2 (Homo sapiens, UniProt P05177); assay: Inhibition of hepatic CYP1A2 at 1 uM; assay type: ADME
T2 sequence (P05177 whole entry): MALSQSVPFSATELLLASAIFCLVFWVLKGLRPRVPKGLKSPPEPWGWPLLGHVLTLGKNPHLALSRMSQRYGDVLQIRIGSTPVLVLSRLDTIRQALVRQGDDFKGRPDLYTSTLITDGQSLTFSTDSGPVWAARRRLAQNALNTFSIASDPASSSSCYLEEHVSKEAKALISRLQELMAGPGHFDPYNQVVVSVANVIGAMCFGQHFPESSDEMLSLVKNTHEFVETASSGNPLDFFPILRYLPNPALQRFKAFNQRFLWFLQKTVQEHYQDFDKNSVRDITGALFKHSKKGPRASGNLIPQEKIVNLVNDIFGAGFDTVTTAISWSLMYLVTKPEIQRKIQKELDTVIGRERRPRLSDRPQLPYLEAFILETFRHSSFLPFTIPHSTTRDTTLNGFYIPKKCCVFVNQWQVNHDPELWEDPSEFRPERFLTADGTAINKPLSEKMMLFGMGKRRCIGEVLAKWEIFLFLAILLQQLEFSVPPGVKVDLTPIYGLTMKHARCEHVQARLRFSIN

CYP2C19 [4] = biological target: T3, CYP2C19 (Homo sapiens, UniProt P33261); assay: Inhibition of hepatic CYP2C19 at 1 uM; assay type: ADME
CYP3A4 [5] = biological target: T4, CYP3A4 (Homo sapiens, UniProt P08684); assay: Inhibition of hepatic CYP3A4 at 1 uM; assay type: ADME
CYP3A4 [6] = biological target: T4, CYP3A4; assay: Inhibition of hepatic CYP3A4 at 10 uM; assay type: ADME
CYP2C9 [7] = biological target: T5, CYP2C9 (Homo sapiens, UniProt P11712); assay: Inhibition of hepatic CYP2C9 at 10 uM; assay type: ADME
CYP2C19 [8] = biological target: T3, CYP2C19; assay: Inhibition of hepatic CYP2C19 at 10 uM; assay type: ADME
CYP1A2 [9] = biological target: T2, CYP1A2; assay: Inhibition of hepatic CYP1A2 at 10 uM; assay type: ADME
CYP2C9 [10] = biological target: T5, CYP2C9; assay: Inhibition of hepatic CYP2C9 at 1 uM; assay type: ADME
[11] = biological target: T1, Steroid 17-alpha-hydroxylase/17,20 lyase; assay: Inhibition of human CYP17 expressed in Escherichia coli
CYP2D6 [12] = biological target: T6, CYP2D6 (Homo sapiens, UniProt P10635); assay: Inhibition of CYP2D6 at 1 uM; assay type: ADME
CYP2D6 [13] = biological target: T6, CYP2D6; assay: Inhibition of CYP2D6 at 10 uM; assay type: ADME
CYP11B1 [14] = biological target: T7, CYP11B1 (Homo sapiens, UniProt P15538); assay: Inhibition of human CYP11B1 expressed in V79Zh11B1 cells at 0.2 uM; assay type: cell-based, V79; details: V79Zh11B1 cells expressing human CYP11B1
T7 sequence (P15538 whole entry): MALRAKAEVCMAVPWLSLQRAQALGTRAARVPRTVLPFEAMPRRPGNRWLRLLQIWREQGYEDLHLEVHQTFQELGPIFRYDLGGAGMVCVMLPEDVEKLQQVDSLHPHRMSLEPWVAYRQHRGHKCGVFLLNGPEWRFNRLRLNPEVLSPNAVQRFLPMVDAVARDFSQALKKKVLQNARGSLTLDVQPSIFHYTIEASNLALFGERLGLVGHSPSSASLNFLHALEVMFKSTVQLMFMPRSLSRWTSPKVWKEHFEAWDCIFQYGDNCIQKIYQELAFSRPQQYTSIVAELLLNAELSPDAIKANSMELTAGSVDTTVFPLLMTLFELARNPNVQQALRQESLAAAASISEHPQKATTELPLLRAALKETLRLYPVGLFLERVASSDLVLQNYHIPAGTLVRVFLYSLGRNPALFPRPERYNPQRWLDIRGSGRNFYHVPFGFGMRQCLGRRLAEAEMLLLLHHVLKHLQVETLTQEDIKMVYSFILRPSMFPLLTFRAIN

CYP11B1 [15] = biological target: T7, CYP11B1; assay: Inhibition of human CYP11B1 expressed in V79Zh11B1 cells at 2 uM; assay type: cell-based; details: V79Zh11B1 cells expressing human CYP11B1
CYP3A4 [16] = biological target: T4, CYP3A4; assay: Inhibition of hepatic recombinant CYP3A4 at 10 uM; assay type: ADME

T5 sequence (P11712 whole entry): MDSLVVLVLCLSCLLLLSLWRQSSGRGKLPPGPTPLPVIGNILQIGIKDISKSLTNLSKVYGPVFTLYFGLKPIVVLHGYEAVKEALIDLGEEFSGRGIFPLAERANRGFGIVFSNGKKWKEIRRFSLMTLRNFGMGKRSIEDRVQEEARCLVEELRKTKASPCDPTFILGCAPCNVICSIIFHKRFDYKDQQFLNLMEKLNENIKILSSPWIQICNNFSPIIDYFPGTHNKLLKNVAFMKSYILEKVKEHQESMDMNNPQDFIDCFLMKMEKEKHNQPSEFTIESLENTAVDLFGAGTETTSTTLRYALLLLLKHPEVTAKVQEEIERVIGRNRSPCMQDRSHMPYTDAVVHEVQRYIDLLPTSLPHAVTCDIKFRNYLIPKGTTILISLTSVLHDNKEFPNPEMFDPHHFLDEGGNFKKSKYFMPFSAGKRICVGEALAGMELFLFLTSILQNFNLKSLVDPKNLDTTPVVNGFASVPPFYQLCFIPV
T4 sequence (P08684 whole entry): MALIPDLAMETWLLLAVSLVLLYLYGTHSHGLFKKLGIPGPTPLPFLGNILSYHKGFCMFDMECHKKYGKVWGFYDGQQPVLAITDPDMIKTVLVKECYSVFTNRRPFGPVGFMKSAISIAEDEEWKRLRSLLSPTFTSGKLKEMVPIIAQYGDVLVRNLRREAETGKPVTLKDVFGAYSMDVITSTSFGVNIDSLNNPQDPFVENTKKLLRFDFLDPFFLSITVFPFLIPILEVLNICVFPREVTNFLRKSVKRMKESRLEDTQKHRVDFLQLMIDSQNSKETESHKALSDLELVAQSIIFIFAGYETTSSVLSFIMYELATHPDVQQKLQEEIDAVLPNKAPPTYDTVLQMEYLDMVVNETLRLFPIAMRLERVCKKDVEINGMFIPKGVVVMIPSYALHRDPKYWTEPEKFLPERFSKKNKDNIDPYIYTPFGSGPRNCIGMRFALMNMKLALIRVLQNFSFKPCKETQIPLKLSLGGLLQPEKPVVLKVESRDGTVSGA
T3 sequence (P33261 whole entry): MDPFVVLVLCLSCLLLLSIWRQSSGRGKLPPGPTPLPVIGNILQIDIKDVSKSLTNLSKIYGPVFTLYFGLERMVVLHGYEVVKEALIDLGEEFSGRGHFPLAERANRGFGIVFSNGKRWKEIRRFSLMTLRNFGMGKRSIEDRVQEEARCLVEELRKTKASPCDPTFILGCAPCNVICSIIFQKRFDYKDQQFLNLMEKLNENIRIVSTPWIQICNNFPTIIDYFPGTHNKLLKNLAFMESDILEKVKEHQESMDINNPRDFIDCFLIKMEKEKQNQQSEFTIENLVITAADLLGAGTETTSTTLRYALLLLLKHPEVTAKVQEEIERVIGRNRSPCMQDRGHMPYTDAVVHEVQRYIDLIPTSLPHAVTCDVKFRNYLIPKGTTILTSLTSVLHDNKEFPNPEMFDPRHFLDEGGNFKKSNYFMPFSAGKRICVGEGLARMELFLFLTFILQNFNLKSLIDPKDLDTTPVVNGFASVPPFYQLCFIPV
T6 sequence (P10635 whole entry): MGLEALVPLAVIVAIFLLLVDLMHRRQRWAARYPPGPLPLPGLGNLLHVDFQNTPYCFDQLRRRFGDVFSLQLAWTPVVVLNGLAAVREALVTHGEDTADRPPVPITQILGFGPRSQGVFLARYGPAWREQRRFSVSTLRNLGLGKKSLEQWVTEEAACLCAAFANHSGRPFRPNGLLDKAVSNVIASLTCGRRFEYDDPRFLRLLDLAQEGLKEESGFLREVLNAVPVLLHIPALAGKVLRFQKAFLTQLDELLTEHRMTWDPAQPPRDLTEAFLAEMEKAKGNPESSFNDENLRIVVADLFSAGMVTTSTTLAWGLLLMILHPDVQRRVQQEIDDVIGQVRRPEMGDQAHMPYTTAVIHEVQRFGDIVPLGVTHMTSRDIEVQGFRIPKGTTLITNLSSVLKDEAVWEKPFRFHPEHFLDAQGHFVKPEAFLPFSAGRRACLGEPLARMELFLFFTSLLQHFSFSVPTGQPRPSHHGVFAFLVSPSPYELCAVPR

| SMILES | inhibition at 0.2 µM [1] [%] | inhibition at 2 µM [2] [%] | inhibition at 1 µM (CYP1A2 [3]) [%] | inhibition at 1 µM (CYP2C19 [4]) [%] | inhibition at 1 µM (CYP3A4 [5]) [%] | inhibition at 10 µM (CYP3A4 [6]) [%] | inhibition at 10 µM (CYP2C9 [7]) [%] | inhibition at 10 µM (CYP2C19 [8]) [%] | inhibition at 10 µM (CYP1A2 [9]) [%] | inhibition at 1 µM (CYP2C9 [10]) [%] | further results |
| --- | --- | --- | --- | --- | --- | --- | --- | --- | --- | --- | --- |
| Oc1ccc2cc(-c3cccc(-c4cccnc4)c3)ccc2c1 | 0 | 8 | – | – | – | – | – | – | – | – | – |
| COc1ccc2cc(-c3ccc(F)cc3)ccc2c1-c1cccnc1 | 6 | 7 | 40 | 68 | 64 | 86 | 54 | 28 | 87 | 66 | – |
| Cc1cc(F)ccc1-c1ccc2c(-c3cccnc3)cccc2c1 | 3 | 3 | – | – | – | – | – | – | – | – | – |
| COc1ccc2cc(-c3cccc(-c4cccnc4)c3)ccc2c1 | 3 | 4 | – | – | – | – | – | – | – | – | – |
| CC(=O)N1CCN(c2ccc(OCC3COC(Cn4ccnc4)(c4ccc(Cl)cc4Cl)O3)cc2)CC1 (stereo not drawn) [KETOCONAZOLE] | – | – | 8 | 24 | 1 | 4 | 75 | 1 | 38 | 21 | – |
| COc1ccc2cc(-c3cccnc3)ccc2c1-c1ccc(F)cc1 | 0 | 1 | – | – | – | – | – | – | – | – | – |
| C[C@]12CC[C@H](O)CC1=CC[C@@H]1[C@@H]2CC[C@]2(C)C(c3cccnc3)=CC[C@@H]12 [ABIRATERONE] | – | – | 36 | 3 | 7 | 7 | 51 | 7 | 53 | 17 | IC50 [11]: 72 nM |
| COc1ccc2cc(-c3cccc(-c4ccncc4)c3)ccc2c1 | 4 | 23 | – | – | – | – | – | – | – | – | – |
| Oc1ccc2cc(-c3cccc(-c4ccncc4)c3)ccc2c1 | 31 | 66 | 98 | 86 | 6 | 19 | 97 | 89 | 98 | 94 | inhibition at 1 µM (CYP2D6 [12]): 80%; inhibition at 10 µM (CYP2D6 [13]): 85%; inhibition at 0.2 µM (CYP11B1 [14]): 3%; inhibition at 2 µM (CYP11B1 [15]): 23%; inhibition at 10 µM (CYP3A4 [16]): 19% |

Continued, in another order:

| inhibition at 0.2 µM [1] [%] | inhibition at 2 µM [2] [%] | inhibition at 1 µM (CYP1A2 [3]) [%] | inhibition at 1 µM (CYP2C19 [4]) [%] | inhibition at 1 µM (CYP3A4 [5]) [%] | inhibition at 10 µM (CYP3A4 [6]) [%] | inhibition at 10 µM (CYP2C9 [7]) [%] | inhibition at 10 µM (CYP2C19 [8]) [%] | inhibition at 10 µM (CYP1A2 [9]) [%] | inhibition at 1 µM (CYP2C9 [10]) [%] | SMILES | further results |
| --- | --- | --- | --- | --- | --- | --- | --- | --- | --- | --- | --- |
| 0 | 0 | – | – | – | – | – | – | – | – | Oc1ccc2cc(-c3ccc(F)cc3)ccc2c1-c1cccnc1 | – |
| 3 | 14 | – | – | – | – | – | – | – | – | Fc1ccc(-c2ccc3cc(Cn4ccnc4)ccc3c2)cc1 | – |
| 2 | 19 | – | – | – | – | – | – | – | – | Fc1ccc(-c2ccc3c(Cn4ccnc4)cccc3c2)cc1 | – |
| 0 | 22 | – | – | – | – | – | – | – | – | Fc1ccc(-c2ccc3cc(-c4cccnc4)ccc3c2)cc1 | – |
| 13 | 45 | 80 | 93 | 93 | 95 | 100 | 96 | 85 | 100 | COc1ccc2cc(-c3ccc(F)cc3)ccc2c1Cn1ccnc1 | – |
| 9 | 50 | – | – | – | – | – | – | – | – | Fc1ccc(-c2cc(Cn3ccnc3)c3ccccc3c2)cc1 | – |
| 24 | 61 | – | – | – | – | – | – | – | – | Oc1ccc2cc(-c3ccc(Cn4ccnc4)cc3)ccc2c1 | – |
| 0 | 28 | 96 | 95 | 91 | 96 | 100 | 97 | 97 | 97 | COc1ccc2cc(-c3cccc(Cn4ccnc4)c3)ccc2c1 | – |
| 2 | 3 | – | – | – | – | – | – | – | – | Fc1ccc(-c2ccc3c(-c4cccnc4)cccc3c2)cc1 | – |
| 1 | 28 | – | – | – | – | – | – | – | – | Fc1ccc(-c2ccc3c(-c4ccncc4)cccc3c2)cc1 | – |
